Measurements: patent US7786142B2, “Heterocyclic compounds as pSTAT3/IL-6 inhibitors” (Orchid Research Laboratories, Ltd., priority 2005, dated 2010)
Entries after “also recorded” stand apart in the source; their conditions may differ.

What was measured:
Jak2/Stat3 signaling = conditions: literature (Burdelya et al., 2002; Meydan et al., 1996; Constantin et al., 1998); cited from earlier work
MDAMB-231/U 251 = experiment: Anti-cancer screen (MTT), MDAMB-231/U 251 cells; type: cell-based; conditions: MDAMB-231/U 251, 48 hours, concentrations tested 0.01-100 μM; for CC50: read-out: LC50 (the source's name)
Protocol: (§1) Experimental drugs are screened for anti-cancer activity in three cell lines for their GI50, TGI and LC50 values (using five concentrations for each compound). The cell lines are maintained in DMEM containing 10% fetal bovine serum. 96 well micro titer plates are inoculated with cells in 100 μL for 24 hours at 37° C., 5% CO2, 95% air and 100% relative humidity. 5000 HCT116 cells/well, 5000 NCIH460 cells/well and 5000 U251 cells/well are plated. A separate plate with these cell lines is also inoculated to determine cell viability before the addition of the compounds (T0), (See Table I).
(§2) Following 24-hours incubation, experimental drugs are added to the 96 well plates. Each plate contains one of the above cell lines and the following in triplicate: five different concentrations (0.01, 0.1, 1, 10 and 100 μM) of four different compounds, appropriate dilutions of a cytotoxic standard and control (untreated) wells. Compounds are dissolved in DMSO to make 20 mM stock solutions on the day of drug addition and frozen at −20° C. Serial dilutions of these 20 mM stock solutions are made in complete growth medium such that 100 μL of these drug solutions in medium, of final concentrations equaling 0.01, 0.1, 1, 10 and 100 μM can be added to the cells in triplicate. Standard drugs whose anti-cancer activity has been well documented and which are regularly used are Doxorubicin and SAHA, (See Table I).
(§3) For T0 measurement, 24 hours after seeding the cells, 10 μL of 3-(4,5-Dimethyl-2-thiazolyl)-2,5-diphenyl-2H-tetrazolium (MTT) solution per well is added and incubation carried out for 3 hours at 37° C., 5% CO2, 95% air and 100% relative humidity, protected from light. Cells incubated with compounds for 48 hours are treated similarly except with the addition of 20 μL MTT solution per well and a subsequent incubation under the same conditions. After 3 hours of MTT incubation, well contents are aspirated carefully followed by addition of 150 μL DMSO per well. Plates are agitated to ensure solution of the formazan crystals in DMSO and absorbance read at 570 nm, (See Table I).
(§4) Percent growth is calculated for each compound's concentration relative to the control and zero measurement wells (T0; viability right before compound addition). If a test well's O.D. value is greater than the T0 measurement for that cell line % Growth=(test−zero)/(control−zero)×100

[1] = tested on: NCIH460, HCT116, MDAMB-231/U 251; experiment: Anti-cancer screen, mean GI50 over the cell lines; type: cell-based
Protocol: as §1, §2, §3, §4

IL-6 = IL-6 in culture supernatants of NCIH 460 cells (ELISA); type: cell-based, Human; conditions: NCIH 460, 5 hours
Protocol: Human Lung Cancer cell line (NCIH 460) is used for IL-6 measurement. 5000 cells/well were seeded in a 96 well plate and incubated in CO2 incubator at 37° C. for 24 hours. After 24 hours of incubation the medium from all wells were completed removed and added 100 μl of fresh DMEM containing 10% FCS. 100 μl of different concentrations of the drug were added and incubated for 5 hours in CO2 incubator at 37° C. After 5 hours of incubation the supernatants were collected and stored at −80° C. The concentration of IL-6 in the supernatant was measured using ELISA kit and the IC50 value of the compound was determined from the dose response curve, (See Table II).

NCIH460 cells = experiment: Anti-cancer screen (MTT), NCIH460 cells; type: cell-based; conditions: Homo sapiens, NCI-H460, NCIH460, 48 hours, concentrations tested 0.01-100 μM; for CC50: read-out: LC50 (the source's name)
Protocol: as §1, §2, §3, §4

HCT116 cells = experiment: Anti-cancer screen (MTT), HCT116 cells; type: cell-based; conditions: Homo sapiens, HCT-116, HCT116, 48 hours, concentrations tested 0.01-100 μM
Protocol: as §1, §2, §3, §4

NCI H460 Xenograft = experiment: In-vivo anti-cancer activity, NCI H460 xenograft model; set-up: species or system SCID mice; conditions: for in-vivo anti-cancer activity: NCI H460 Xenograft model, in words
Protocol: Experiments were carried out using 6-8 week old female athymic SCID (Severe Combined Immune Deficient) mice. The mice were kept in laminar flow rooms (housed in Individually Ventilated Cages) at constant temperature and humidity. They had free access to food and water. Tumors were obtained form ATCC and maintained by s.c. passages of tumor fragments (about 2×2×2 mm) in healthy mice according to standard reported procedures. Each experimental group included six/eight mice bearing bilateral tumors. Tumors were implanted on day 0, and tumor growth was followed by biweekly measurements of tumor diameters with a Vernier caliper. Tumor Volume (TV) was calculated according to the following formula: TV (mm^3)=d^2 XD/2, where d and D are the shortest diameter and the longest diameter of the tumor, respectively. The drug treatment started when tumors were just measurable (Mean TV=150-200 mm^3).
(§5) All test compound/standard drugs were delivered by gavage in a volume of 10 ml/kg. Drugs were administered every day for single time to a period of 21 days. Control mice were treated with the drug solvent/vehicle. Tumor size is measured every alternate days and body weight is recorded daily.
(§6) • a) Tumor Volume Inhibition (TVI): A TVI value higher than 80% is indicative of active compounds. • b) T/C % is also another indicator for the activity. A reproducible 20% T/C is considered as therapeutically active. • c) Log Cell Kill (LCK): A LCK value greater than 1 is indicative of active compounds. • d) Relative Tumor Volume (RTV), Tumor Delay and % Tumor volume change are also considered as valuable additional parameters for assessment. • e) Toxic effects of drug treatment were assessed by Body Weight Loss % • f) Lethal toxicity was defined as any death in treated groups occurring before any control death. Mice were inspected daily for mortality and toxic clinical signs.

[2] = mouse, in vivo
Protocol: as §5, §6

pSTAT3 = pSTAT3 inhibition (Western blot in DU 145 / SKOV-3 cells; ELISA in HepG2 cells); type: cell-based; conditions: in words; FIGS. 1 and 2
Protocol: Western blot analysis was performed as described by Kammer W et. al (J Biol Chem 271, 23634-23637, and J Biol Chem 273, 31222-31229). Briefly, 60 μg of whole cell extract was solubilized in Laemmeli buffer (50 mM Tris/HCl, pH 6.8, 2% SDS, 10% glycerol, 1 mM DTT, 1× Protease inhibitor cocktail, SET-3 (Calbiochem), 1 mM Sodium Ortho-vanadate) boiled for 5-10 minutes, and separated on a 10 or 12% acrylamide SDS gel. After protein transfer, the nitrocellulose membranes were blocked in blocking buffer for 2 hour (1×TBS, 0.1% Tween-20, 5% BSA). Membranes were incubated for 20 hours in blocking buffer containing, STAT3 P-Tyr705 (Santa Cruz Biotech), STAT3 (H-190, Santa Cruz Biotech) and Actin (C-2, Santa Cruz Biotech) antibody at 1:300 dilution. Detection was performed with HRP conjugated antimouse/antirabbit IgG (Santa Cruz Biotech) at a dilution of 1:3,000 for 1 hour. Visualization was performed using an Enhanced Chemiluminescence detection kit (Amersham). See Appended Diagrams: FIGS. 1 and 2. […]
Capture Antibody was diluted to a working concentration of 2.0 μg/mL in PBS. […] The plates were made ready after 2-3 washes with wash buffer. […] The reaction was stopped by adding 50 μl of stop solution to each well and the OD was determined using a microplate reader at 450 nm.

Row | SMILES | concentration needed to show Jak/Stat3 signaling inhibition and anti-tumor activity (Jak2/Stat3 signaling) [µM] | GI50 (MDAMB-231/U 251) [µM] | IC (TGI) (MDAMB-231/U 251) [µM] | CC50 (MDAMB-231/U 251) [µM] | GI50 [1] [µM] | IL-6 Inhibition IC50 (μM) (IL-6) | GI50 (NCIH460 cells) [µM] | IC (TGI) (NCIH460 cells) [µM] | CC50 (NCIH460 cells) [µM] | GI50 (HCT116 cells) [µM] | IC (TGI) (HCT116 cells) [µM] | LC50 (concentration for 50% net cell kill relative to T0) (HCT116 cells) [µM] | in-vivo anti-cancer activity (NCI H460 Xenograft) | body weight loss [2] | pSTAT3 inhibition (pSTAT3) | inhibition at 0.1 µM (IL-6; Homo sapiens, NCI-H460, 0.1 μM) [%] | inhibition at 1 µM (IL-6; Homo sapiens, NCI-H460, 1 μM) [%] | IC50 (IL-6; Homo sapiens, NCI-H460, read-out: IL-6 Inhibition IC50) [µM] | inhibition against NCI H460 Xenograft model (NCI H460 Xenograft; SCID mice, gavage, every day for 21 days) [%]
1 | N#C/C(=C/c1ccc(O)c(O)c1)C(=O)NCc1ccccc1 [AG490] | 50 to 100 | – | – | – | – | – | – | – | – | – | – | – | – | – | – | – | – | – | –
2 | COc1ccc(CNC[C@@H](O)COc2cccc3[nH]c4ccccc4c23)c(OC)c1 [Example 24, (2R)-1-(9H-carbazol-4-yloxy)-3-[(2,4-dimethoxy-benzyl)amino]propan-2-ol] | – | 18 | 51 | 79 | 9 | No activity | 0.76 | 53 | 67 | 8.3 | 53 | 80 | good anti-cancer activity | no body weight loss was observed | – | – | – | – | –
3 | COc1ccc(CNCC(O)COc2cccc3[nH]c4ccccc4c23)c(OC)c1 (racemic) [Example 1, 1-(9H-carbazol-4-yloxy)-3-[(2,4-dimethoxybenzyl)amino]propan-2-ol] | – | 5 | 9.8 | 60 | 4.8 | – | 0.78 | 18 | 62 | 8.5 | 39 | 79 | good in-vivo anti-cancer activity | – | work through pSTAT3 inhibition; also recorded: mechanism of action was through pSTAT3 inhibition | 45.7 | 55.3 | 5 | 52
